Test results: US20170340693A1, “DISLODGEMENT AND RELEASE OF HSC USING ALPHA 9 INTEGRIN ANTAGONIST AND CXCR4 ANTAGONIST” (COMMONWEALTH SCIENTIFIC AND INDUSTRIAL RESEARCH ORGANISATION, priority 2014, published 2017)

How the values were obtained:
α4β1 or α9β1 LN18 cells = experiment: Association and dissociation (off-rate) kinetics in vitro; type: binding, human
Description: Eppendorf vials containing α4β1 or α9β1 LN18 cells (0.5×10^6 cells) were treated with 50 nM of R-BC154 (IXb) (100 μl in TBS-2% FBS containing either 1 mM CaCl2—MgCl2 or 1 mM MnCl2 at 37° C. until for 30 min, washed once with the relevant binding buffer and dry pelleted. The cells were treated with 500 nM of an unlabelled competing inhibitor (100 μl, in TBS-2% FBS containing either 1 mM CaCl2—MgCl2 or 1 mM MnCl2) at 37° C. for the times indicated (0, 2.5, 5, 15, 30, 45, 60 min). The cells were diluted with cold TBS-2% FBS (containing the relevant cations), pelleted by centrifugation, washed once and resuspended (˜200 μl) in binding buffer for flow cytometric analysis. Mean channel fluorescence was plotted against time and the data was fitted to either a one-phase or two-phase exponential decay function using GraphPad Prism 6. The off-rate, koff was extrapolated from the curves.
Eppendorf vials containing α4β1 or α9β1 LN18 cells (0.5×10^6 cells) in 50 μl TBS-2% FBS containing either 1 mM CaCl2—MgCl2 or 1 mM MnCl2 were pre-activated in a heating block for 20 min at 37° C. […] Mean channel fluorescence was plotted against time and the data was fitted to either a one-phase or two phase association function using GraphPad Prism 6. The observed on-rate, kobs was extrapolated from the curves and kon was calculated using […]

[1] = tested on: murine BM progenitors (LSK) and HSC (LSKSLAM); experiment: In vitro R-BC154 (IXb) binding to murine central and endosteal BM cells; type: cell-based, mice
Source text: Populations of endosteal and central murine bone marrow cells were isolated as previously described in J. Grassinger, et al Cytokine, 2012, 58, 218-225 and D. N. Haylock et al Stem Cells, 2007, 25, 1062-1069. Briefly, one femur, tibia and iliac bone were excised and cleaned of muscle. After removing the epi- and metaphyseal regions, bones were flushed with PBS-2% FBS to obtain central bone marrow cells. Flushed long bones and epi- and metaphyseal fragments were pooled and crushed using a mortar and pestle. Bone fragments were digested with Collagenase I (3 mg/ml) and Dispase II (4 mg/ml) at 37° C. in an orbital shaker at 750 rpm. After 5 min, bone fragments were washed once with PBS and once with PBS 2% FBS to collect the endosteal bone marrow cells. Peripheral blood was collected by retro-orbital puncture and red blood cells were lysed using NH4Cl lysis buffer for 5 min at room temperature. Isolated cell populations were washed with PBS 2% FBS and then stained for flow cytometry as described in Antibody Cocktails above.
For in vitro labelling experiments, 5×10^6 BM cells from C57 mice, conditional α4^−/−/α9^−/− mice and humanised NODSCIDIL2Rγ^−/− mice and human cord blood MNCs were treated with R-BC154 (IXb) (up to 300 nM) in PBS (0.5% BSA) or TBS (0.5% BSA) containing either 1 mM CaCl2/MgCl2 (activating) or 10 mM EDTA (deactivating) at 40×10^6 cells/ml for 20 mins at 4° C. Cells were washed with cold PBS (2% FBS) and then immunolabelled as described in “Antibody Cocktails” prior to flow cytometric analysis. For in vivo experiments, C57BL/6 mice, α4^−/−/α9^−/− vav-cre mice and humanised NODSCIDIL2Rγ^−/− mice received either intravenous or subcutaneous injections of R-BC154 (IXb) (5-10 mg/kg) at 100 ul/10 gm mouse weight and analysed as described above.
To determine whether integrin activation is required for binding to both central and endosteal BM progenitors (Lin^−Sca-1^+ckit^+ cells; LSK) and HSC (LSKCD150^+CD48^− cells; LSKSLAM) (FIG. 3a), R-BC154 (IXb) binding was assessed in the presence of 1 mM Ca^2+/Mg^2+ (FIG. 3b).

α4β1 integrin = α4β1 integrin (Homo sapiens, UniProt P05556+P13612); experiment: In vitro (saturation) binding of R-BC154; set-up: expressed in transfected cells; host or cells: LN18 (ATCC CRL-2610), retrovirally transduced; settings: in vitro binding data
Description: Cultured α4β1, α9β1 and control LN18 cells (0.5×10^6 cells) were treated with 100 μl of compound (R-BC154) at 0, 1, 3, 10, 30 and 100 nM in TBS-2% FBS (containing either no cations, 1 mM CaCl2—MgCl2 or 1 mM MnCl2). The cells were incubated at 37° C. for 60 min, washed once with TBS-2% FBS, dry pelleted and resuspended in the relevant binding buffer for flow cytometric analysis. Mean channel fluorescence was plotted against concentration and fitted to a one-site saturation ligand binding curve using GraphPad Prism 6. The dissociation constant, Kd was determined from the curves.

Chain of α4β1 integrin (P13612 34-1032): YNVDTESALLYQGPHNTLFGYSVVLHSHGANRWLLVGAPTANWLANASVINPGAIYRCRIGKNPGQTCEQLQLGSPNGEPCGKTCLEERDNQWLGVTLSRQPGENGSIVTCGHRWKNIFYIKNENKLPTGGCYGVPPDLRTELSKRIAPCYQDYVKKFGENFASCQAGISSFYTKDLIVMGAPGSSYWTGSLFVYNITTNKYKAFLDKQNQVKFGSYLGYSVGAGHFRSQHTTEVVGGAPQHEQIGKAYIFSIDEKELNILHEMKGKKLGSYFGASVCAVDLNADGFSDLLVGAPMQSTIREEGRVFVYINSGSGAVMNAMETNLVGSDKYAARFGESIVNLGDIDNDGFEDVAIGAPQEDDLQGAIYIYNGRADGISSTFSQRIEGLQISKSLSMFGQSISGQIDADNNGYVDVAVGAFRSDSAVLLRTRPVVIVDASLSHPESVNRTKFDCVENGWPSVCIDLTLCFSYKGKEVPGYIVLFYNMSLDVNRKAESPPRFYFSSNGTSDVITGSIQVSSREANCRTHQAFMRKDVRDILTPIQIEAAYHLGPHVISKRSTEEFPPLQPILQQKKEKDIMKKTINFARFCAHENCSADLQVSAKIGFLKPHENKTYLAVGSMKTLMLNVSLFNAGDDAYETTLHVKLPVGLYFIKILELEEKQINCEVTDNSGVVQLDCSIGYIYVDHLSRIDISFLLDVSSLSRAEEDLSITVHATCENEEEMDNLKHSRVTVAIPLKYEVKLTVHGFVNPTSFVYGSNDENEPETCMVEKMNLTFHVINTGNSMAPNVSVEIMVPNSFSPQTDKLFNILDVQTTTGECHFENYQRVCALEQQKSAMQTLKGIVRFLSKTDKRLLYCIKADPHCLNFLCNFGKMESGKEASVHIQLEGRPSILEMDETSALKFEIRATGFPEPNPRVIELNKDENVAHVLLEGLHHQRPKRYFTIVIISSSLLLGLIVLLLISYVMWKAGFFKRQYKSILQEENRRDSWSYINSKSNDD
Chain of α4β1 integrin (P05556 21-798): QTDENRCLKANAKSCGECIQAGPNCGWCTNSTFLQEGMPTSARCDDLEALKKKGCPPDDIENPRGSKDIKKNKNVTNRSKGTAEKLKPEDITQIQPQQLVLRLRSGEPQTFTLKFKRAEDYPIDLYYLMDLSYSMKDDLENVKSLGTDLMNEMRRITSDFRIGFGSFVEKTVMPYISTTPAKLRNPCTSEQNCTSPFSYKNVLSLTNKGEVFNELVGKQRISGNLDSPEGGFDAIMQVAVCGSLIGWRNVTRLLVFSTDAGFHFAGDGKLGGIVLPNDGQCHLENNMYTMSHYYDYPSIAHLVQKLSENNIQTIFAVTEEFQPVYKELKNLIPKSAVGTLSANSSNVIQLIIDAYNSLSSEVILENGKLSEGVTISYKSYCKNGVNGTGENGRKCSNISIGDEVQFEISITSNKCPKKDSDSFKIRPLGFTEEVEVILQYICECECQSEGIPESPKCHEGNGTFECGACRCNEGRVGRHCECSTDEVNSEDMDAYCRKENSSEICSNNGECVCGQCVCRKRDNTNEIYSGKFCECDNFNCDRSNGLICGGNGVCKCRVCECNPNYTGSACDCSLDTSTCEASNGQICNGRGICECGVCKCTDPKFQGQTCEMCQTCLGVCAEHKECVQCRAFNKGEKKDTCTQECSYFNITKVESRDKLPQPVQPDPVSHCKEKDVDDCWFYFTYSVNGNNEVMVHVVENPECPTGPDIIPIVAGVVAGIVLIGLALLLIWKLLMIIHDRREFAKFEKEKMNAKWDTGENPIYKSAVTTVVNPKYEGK

CCN(CC)c1ccc2c(-c3ccc(S(=O)(=O)NCc4cn(C5C[C@@H](C(=O)N[C@@H](Cc6ccc(OC(=O)N7CCCC7)cc6)C(=O)O)N(S(=O)(=O)c6ccccc6)C5)nn4)cc3S(=O)(=O)[O-])c3ccc(=[N+](CC)CC)cc-3oc2c1 (some centres unmarked) [R-BC154 (IXb)]
off-rates for α9β1 compared to α4β1 (α4β1 or α9β1 LN18 cells): significantly reduced off-rates | binding affinities relative to BOP (α4β1 or α9β1 LN18 cells; association and dissociation kinetics studies in vitro): lower binding affinities | binding to central versus endosteal LSK and LSKSLAM ([1]; 1 mM Ca2+/Mg2+): greater binding to central LSK and LSKSLAM was observed relative to their endosteal counterparts | binding to α4−/−/α9−/− LSK and LSKSLAM cells ([1]; BM of α4flox/flox α9flox/flox vav-cre mice): essentially absent | binding to HSC and progenitors on co-treatment with EDTA ([1]; EDTA (deactivating)): completely abolished activity | binding to endosteal and central LSK ([1]; absence of both activating cations and EDTA): binding to endosteal LSK cells was still evident but not to central LSK | binding to lineage committed lymphoid and myeloid cells relative to LSKSLAM and LSK ([1]; exogenous activation): significantly lower relative to LSKSLAM | affinity for α4β1 integrin (α4β1 integrin): high affinity
